Reference: patent US10105357B2, “Indication of antibiotic drugs for preparation of cancer inhibition pharmaceutical composition” (LAUNX BIOMEDICAL CO., LTD., priority 2014, dated 2018)
Counter-ions that a name gives are not always drawn. Like-named read-outs stand apart in the source and are kept apart here.

Tests used:
[1] = tested on: A549 (Lung Adenocarcinoma); assay: Cell viability analysis, lung cancer A549; assay type: cell-based, human; details: for viability at 10 µM: Homo sapiens, A549, 72 h
[2] = tested on: HL-60 (Acute Promyelocytic Leukemia); assay: Cell viability analysis, leukemia HL-60; assay type: cell-based, human; details: Homo sapiens, HL-60, 72 h, read-out: cell viability (survival rate), HL-60, drug 10 μM, 72 hours, WST-1, OD450 nm
[3] = tested on: BCC (basal cell carcinoma); assay: Cell viability analysis, skin cancer BCC; assay type: cell-based, human; details: Homo sapiens, 72 h, read-out: The results of antibiotic drug inhibiting cancer cell lines (cell viability analysis), BCC
[4] = tested on: HepG2 (Hepatocellular Carcinoma); assay: Cell viability analysis, hepatic cancer HepG2; assay type: cell-based, human; details: for viability at 10 µM: Homo sapiens, HepG2, 72 h
[5] = tested on: MKN-45 (Gastric Adenocarcinoma); assay: Cell viability analysis, gastric cancer MKN-45; assay type: cell-based, human; details: for viability at 10 µM: Homo sapiens, MKN-45, 72 h
[6] = tested on: MDA-MB-231 (Mammary Gland, Adenocarcinoma); assay: Cell viability analysis, breast cancer MDA-MB-231; assay type: cell-based, human; details: for viability at 10 µM: Homo sapiens, MDA-MB-231, 72 h, read-out: The results of antibiotic drug inhibiting cancer cell lines (cell viability analysis), MDA-MB231
[7] = tested on: LoVo (Colorectal Adenocarcinoma); assay: Cell viability analysis, colon cancer LoVo; assay type: cell-based, human; details: for viability at 10 µM: Homo sapiens, LoVo, 72 h
BxPC-3 = assay: Cell viability analysis, pancreatic cancer BxPC-3; assay type: cell-based, human; details: Homo sapiens, BXPC-3, 72 h, read-out: The results of antibiotic drug inhibiting cancer cell lines (cell viability analysis), BxPC-3
[8] = tested on: C-33A (Cervical carcinoma); assay: Cell viability analysis, cervical cancer C-33A; assay type: cell-based, human; details: for viability at 10 µM: Homo sapiens, C-33-A, 72 h, read-out: The results of antibiotic drug inhibiting cancer cell lines (cell viability analysis), C-33A
U-2OS = assay: Cell viability analysis, osteosarcoma U-2OS; assay type: cell-based, human; details: for viability at 10 µM: Homo sapiens, U2OS, 72 h, read-out: The results of antibiotic drug inhibiting cancer cell lines (cell viability analysis), U2OS
[9] = tested on: A375 (Amelanotic Melanoma); assay: Cell viability analysis, skin cancer A375; assay type: cell-based, human; details: for viability at 10 µM: Homo sapiens, A-375, 72 h
[10] = tested on: SAS (Tongue squamous cell carcinoma); assay: Cell viability analysis, tongue cancer SAS; assay type: cell-based, human; details: for viability at 10 µM: Homo sapiens, 72 h, read-out: The results of antibiotic drug inhibiting cancer cell lines (cell viability analysis), SAS
[11] = tested on: PC3 (p53−) (Prostate Adenocarcinoma); assay: Cell viability analysis, prostate cancer PC3; assay type: cell-based, human; details: for viability at 10 µM: Homo sapiens, 72 h
[12] = tested on: MCF7 (Mammary Gland, Adenocarcinoma); assay: Cell viability analysis, breast cancer MCF7; assay type: cell-based, human; details: Homo sapiens, MCF7, 72 h
[13] = tested on: HI650 (Lung Adenocarcinoma); assay: Cell viability analysis, lung cancer HI650; assay type: cell-based, human; details: for viability at 10 µM: Homo sapiens, NCI-H1650, 72 h
[14] = tested on: AGS (Gastric Adenocarcinoma); assay: Cell viability analysis, gastric cancer AGS; assay type: cell-based, human; details: for viability at 10 µM: Homo sapiens, 72 h
[15] = tested on: TSGH-8301 (Urinary Bladder Carcinoma); assay: Cell viability analysis, bladder cancer TSGH-8301; assay type: cell-based, human; details: for viability at 10 µM: Homo sapiens, 72 h
[16] = tested on: HeLa (Cervix Adenocarcinoma); assay: Cell viability analysis, cervical cancer HeLa; assay type: cell-based, human; details: for viability at 10 µM: Homo sapiens, HeLa, 72 h
[17] = tested on: Hep3B (hepatocellular carcinoma); assay: Cell viability analysis, hepatic cancer Hep3B; assay type: cell-based, human; details: for viability at 10 µM: Homo sapiens, Hep3B, 72 h, read-out: The results of antibiotic drug inhibiting cancer cell lines (cell viability analysis), Hep3B
cancer cell lines = assay: Cell viability analysis (WST-1) on cancer cell lines; assay type: cell-based, human; details: drug 10 μM, 72 hours, WST-1; Table 3
[18] = tested on: 786-O (Renal adenocarcinoma); assay: Cell viability analysis, renal cancer 786-O; assay type: cell-based, human; details: for viability at 10 µM: Homo sapiens, 786-0, 72 h, read-out: The results of antibiotic drug inhibiting cancer cell lines (cell viability analysis), 786-O
TOV-21G = assay: Cell viability analysis, ovarian cancer TOV-21G; assay type: cell-based, human; details: Homo sapiens, TOV21G, 72 h, read-out: The results of antibiotic drug inhibiting cancer cell lines (cell viability analysis), TOV-21G
AsPC-1 = assay: Cell viability analysis, pancreatic cancer AsPC-1; assay type: cell-based, human; details: for viability at 10 µM: Homo sapiens, ASPC1, 72 h, read-out: The results of antibiotic drug inhibiting cancer cell lines (cell viability analysis), AsPC-1
NIH: OVCAR-3 = assay: Cell viability analysis, ovarian cancer NIH: OVCAR-3; assay type: cell-based, human; details: for viability at 10 µM: Homo sapiens, OVCAR-3, 72 h, read-out: The results of antibiotic drug inhibiting cancer cell lines (cell viability analysis), NIH-OVCAR-3
[19] = tested on: HCT116 (p53+) (Colorectal Carcinoma)
T24 = assay: Cell viability analysis, bladder cancer T24; assay type: cell-based, human; details: Homo sapiens, T-24, 72 h, read-out: The results of antibiotic drug inhibiting cancer cell lines (cell viability analysis), T24
[20] = read-out: The results of antibiotic drug inhibiting cancer cell lines (cell viability analysis), A549, A549, repeated experiment
[21] = read-out: cell viability (survival rate), A549, drug 10 μM, 72 hours, WST-1, OD450 nm
[22] = read-out: The results of antibiotic drug inhibiting cancer cell lines (cell viability analysis), HepG2, HepG2, repeated experiment
[23] = read-out: cell viability (survival rate), HepG2, drug 10 μM, 72 hours, WST-1, OD450 nm
[24] = read-out: The results of antibiotic drug inhibiting cancer cell lines (cell viability analysis), MKN-45, MKN-45, repeated experiment
[25] = read-out: cell viability (survival rate), MKN-45, drug 10 μM, 72 hours, WST-1, OD450 nm
[26] = read-out: The results of antibiotic drug inhibiting cancer cell lines (cell viability analysis), LoVo, repeated experiment
[27] = read-out: cell viability (survival rate), LoVo, drug 10 μM, 72 hours, WST-1, OD450 nm
[28] = read-out: The results of antibiotic drug inhibiting cancer cell lines (cell viability analysis), A375, A375, repeated experiment
[29] = read-out: cell viability (survival rate), A375, drug 10 μM, 72 hours, WST-1, OD450 nm
[30] = read-out: The results of antibiotic drug inhibiting cancer cell lines (cell viability analysis), PC-3, PC-3, repeated experiment
[31] = read-out: cell viability (survival rate), PC3, drug 10 μM, 72 hours, WST-1, OD450 nm
[32] = read-out: The results of antibiotic drug inhibiting cancer cell lines (cell viability analysis), MCF-7, MCF-7, repeated experiment
[33] = read-out: cell viability (survival rate), MCF7, drug 10 μM, 72 hours, WST-1, OD450 nm
[34] = read-out: The results of antibiotic drug inhibiting cancer cell lines (cell viability analysis), H1650, H1650, repeated experiment
[35] = read-out: cell viability (survival rate), H1650, drug 10 μM, 72 hours, WST-1, OD450 nm
[36] = read-out: The results of antibiotic drug inhibiting cancer cell lines (cell viability analysis), AGS, repeated experiment
[37] = read-out: cell viability (survival rate), AGS, drug 10 μM, 72 hours, WST-1, OD450 nm
[38] = read-out: The results of antibiotic drug inhibiting cancer cell lines (cell viability analysis), TSGH-8301, TSGH-8301, repeated experiment
[39] = read-out: cell viability (survival rate), TSGH, drug 10 μM, 72 hours, WST-1, OD450 nm
[40] = read-out: The results of antibiotic drug inhibiting cancer cell lines (cell viability analysis), HeLa, repeated experiment
[41] = read-out: cell viability (survival rate), HeLa, drug 10 μM, 72 hours, WST-1, OD450 nm

SMILES	viability at 10 µM [1, 20] [%]	viability at 10 µM [3] [%]	viability at 10 µM [5, 24] [%]	viability at 10 µM [6] [%]	viability at 10 µM [7, 26] [%]	viability at 10 µM (BxPC-3) [%]	viability at 10 µM [8] [%]	viability at 10 µM (U-2OS) [%]	viability at 10 µM [10] [%]	viability at 10 µM [11, 30] [%]	viability at 10 µM [12, 32] [%]	viability at 10 µM [13, 34] [%]	viability at 10 µM [14, 36] [%]	viability at 10 µM [15, 38] [%]	viability at 10 µM [16, 40] [%]	viability at 10 µM [17] [%]	inhibition effect on different cancer cell lines (cancer cell lines)	viability at 10 µM [18] [%]	viability at 10 µM (TOV-21G) [%]	viability [19] [%]	also measured
CC(=O)NC[C@H]1CN(c2ccc(N3CCOCC3)c(F)c2)C(=O)O1 [Linezolid (Zyvox), Linezolid]	82.1	67.2	137	96.2	89.5	95.6	132	99.8	84	115	73.1	95.6	104	99.7	89.2	99.9	significant inhibition effect	98.6	78.2	107	viability at 10 µM [1, 21]: 40.2%; viability at 10 µM [2]: 129%; viability at 10 µM [4, 22]: 107%; viability at 10 µM [4, 23]: 91.3%; viability at 10 µM [5, 25]: 65.9%; viability at 10 µM [7, 27]: 91%; viability at 10 µM [9, 28]: 82.8%; viability at 10 µM [9, 29]: 57.6%; viability at 10 µM [11, 31]: 67%; viability at 10 µM [12, 33]: 66.3%; viability at 10 µM [13, 35]: 51.3%; viability at 10 µM [14, 37]: 70.8%; viability at 10 µM [15, 39]: 58.2%; viability at 10 µM [16, 41]: 93.7%; viability at 10 µM (AsPC-1): 92.6%; viability at 10 µM (NIH: OVCAR-3): 110%
N#C[C@@H]1C[C@@H]2C[C@H]2N1C(=O)[C@@H](N)C12CC3CC(CC(O)(C3)C1)C2 [Saxagliptin (BMS-477118, Onglyza)]																				107	The results of antibiotic drug inhibiting cancer cell lines (cell viability analysis), A549 [1]: 98.68; The results of antibiotic drug inhibiting cancer cell lines (cell viability analysis), HepG2 [4]: 118; The results of antibiotic drug inhibiting cancer cell lines (cell viability analysis), MKN-45 [5]: 117.7; The results of antibiotic drug inhibiting cancer cell lines (cell viability analysis), MDA-MB231 [6]: 102; The results of antibiotic drug inhibiting cancer cell lines (cell viability analysis), LoVo [7]: 82.99; The results of antibiotic drug inhibiting cancer cell lines (cell viability analysis), C-33A [8]: 104.4; The results of antibiotic drug inhibiting cancer cell lines (cell viability analysis), U2OS (U-2OS): 62.9; The results of antibiotic drug inhibiting cancer cell lines (cell viability analysis), A375 [9]: 111.4; The results of antibiotic drug inhibiting cancer cell lines (cell viability analysis), SAS [10]: 62.71; The results of antibiotic drug inhibiting cancer cell lines (cell viability analysis), PC-3 [11]: 112; The results of antibiotic drug inhibiting cancer cell lines (cell viability analysis), H1650 [13]: 101.5; The results of antibiotic drug inhibiting cancer cell lines (cell viability analysis), AGS [14]: 121.3; The results of antibiotic drug inhibiting cancer cell lines (cell viability analysis), TSGH-8301 [15]: 119.6; The results of antibiotic drug inhibiting cancer cell lines (cell viability analysis), HeLa [16]: 114.7; The results of antibiotic drug inhibiting cancer cell lines (cell viability analysis), Hep3B [17]: 122.9; The results of antibiotic drug inhibiting cancer cell lines (cell viability analysis), 786-O [18]: 98.33; The results of antibiotic drug inhibiting cancer cell lines (cell viability analysis), AsPC-1 (AsPC-1): 75.97; The results of antibiotic drug inhibiting cancer cell lines (cell viability analysis), NIH-OVCAR-3 (NIH: OVCAR-3): 114.2
CN(C)CCCN1c2ccccc2CCc2ccc(Cl)cc21 [Clomipramine hydrochloride (Anafranil), Clomipramine hydrochloride]	86.4	124	125	117	65.7	78.3	118	58.4	51.6	91.2	65.9	103	122	139	113	135	significant inhibition effect	80.3	118	137	viability at 10 µM (T24): 109%; viability at 10 µM (AsPC-1): 77.2%
CCOc1ccc(NC(C)=O)cc1 [Phenacetin]	87.6	119	123	91.7	87.7	73.2	114	63.9	81.9	133	92.9	90.1	122	128	110	106	significant inhibition effect	92	95.8	102	viability at 10 µM [1, 21]: 34.4%; viability at 10 µM [2]: 95.3%; viability at 10 µM [4, 22]: 121%; viability at 10 µM [4, 23]: 72.5%; viability at 10 µM [5, 25]: 75.1%; viability at 10 µM [7, 27]: 48.5%; viability at 10 µM [9, 28]: 106%; viability at 10 µM [9, 29]: 54.1%; viability at 10 µM [11, 31]: 40.4%; viability at 10 µM [12, 33]: 62.7%; viability at 10 µM [13, 35]: 39.1%; viability at 10 µM [14, 37]: 40.4%; viability at 10 µM [15, 39]: 23.3%; viability at 10 µM [16, 41]: 57.2%; viability at 10 µM (AsPC-1): 90.5%; viability at 10 µM (NIH: OVCAR-3): 105%
